Where two headings read alike, the source gives them in different places.
Columns and labels:
[1] = test system: Resistant Strain of Two-Spotted Spider Mite; details: 100 ppm, single agent, 2 days after spraying
[2] = test system: Green Peach Aphid (Myzus persicae); assay: Insecticidal test on green peach aphid, spraying of Chinese cabbage, control value; format: in vivo; details: single agent, 6 days after spraying
[3] = test system: Brown Rice Planthopper (Nilaparvata lugens); assay: Insecticidal test on brown rice planthopper, rice seedling dipping; format: in vivo; details: single agent; for Death rate (%) After 1 days: after 1 day
Text: Insecticidal Test on Brown Rice Planthopper (Nilaparvata lugens)
Rice seedlings (variety: Nihombare) were dipped in a solution of an agent diluted to a predetermined concentration for 30 seconds. After air-dryness, each seedling was introduced into a glass-made test tube having a diameter of 1.8 cm and a height of 20 cm, and inoculated with ten 3rd inster nimphs of brown rice planthopper. Then, the test tube was stoppered with cotton. One day after and four days after the treatment, the number of alive insects was counted, based on which the insect death rate was calculated.

[4] = test system: Smaller Tea Tortrix (Adoxophyes orana fosciota); assay: Insecticidal test on smaller tea tortrix, tea leaf dipping; format: in vivo; details: 4th instar larvae, 25° C.; for pest or weed control at 1 ppm / pest or weed control at 0.1 ppm / pest or weed control at 50 ppm: Adoxophyes orana, foliar; for pest or weed control at 50 ppm: single agent 50 ppm
Description: Insecticidal Test on Smaller Tea Tortrix (Adoxophyes orana fosciota)
Tea leaves were dipped in a solution of a chemical diluted to a prescribed concentration for 30 seconds. […] Four days and seven days after the treatment, the number of alive insects were counted, from which percentage of death was calculated.

[5] = test system: Southern Root-Knot Nematode (Meloidogyne incognita); assay: Test for the effect on southern root-knot nematode, soil blending with granular preparation; format: in vivo; details: 300 g ai/10a, single agent, 60 days after treatment
Text: Test for the Effect on Southern Root-Knot Nematode (Meloidogyne incognita)
Two killograms of a soil polluted with southern root-knot nematode was blended with a predetermined dose of a granular preparation. The mixture was filled into a 1/5,000 are Wagner pot. After sowing melon seeds and carrying out the treatment of the present invention, the pot was left to stand in a greenhouse. Sixty days after the treatment, 25 g of the soil was sampled out, the nematode was separated therefrom according to the method of Berman, and the numbers of nematodes were counted after 48 hours.
In the tables, “ai” means active ingredient.

[6] = test system: Small Brown Planthopper (Laodelphax striatellus); assay: Control of small brown planthopper on paddyfield rice by nursery box application, number of parasitic insects; format: in vivo; details: single agent
Description: (§1) Test for the Control of Small Brown Planthopper (Laodelphax striatellus) and Rice Leafroller (Cnaphalocrosis medinalis) on Paddyfield Rice Plant by Nursery Box Application
(§2) Fifty grams of a granular preparation was applied to rice plant (variety: Nihombare) cultured in a nursery box, after which the rice plant was transplanted to the main paddy field (in the middle of May). The controlling effect against small brown planthopper was evaluated by investigating the number of parasitic insects on 30 hills per each plot, 40 days and 60 days after the transplantation. The controlling effect against rice leafroller was evaluated by investigating the number of injured leaves on 100 hills per each plot, 50 days after the transplantation.

[7] = test system: Rice Leafroller (Cnaphalocrosis medinalis); assay: Control of rice leafroller on paddyfield rice by nursery box application, number of injured leaves; format: in vivo; details: single agent
Description: as §1, §2

[8] = test system: Diamondback Moth (Plutella xyloxtella); assay: Control of diamondback moth on cabbage by soil treatment, number of parasitic insects; format: in vivo; details: 20 mg ai/hill, 21 days after transplanting
Description: (§3) Test for the Control of Diamondback Moth (Plutella xyloxtella) and Aphid on Cabbage by Soil Treatment
A granular preparation was mixed into bed soil, and the mixture was filled into a cell seedling box and sown with seeds of cabbage (variety: YR Seitoku). Otherwise, cell seedling planted cabbage was treated with the granular agent either by a treatment in the foliage leaf extraction period, or by a pre-transplanting treatment, or by a pricking-in hole treatment, or by a plant foot treatment after the planting. Twenty one days after the transplanting (in the middle of June), the number of parasitic insects was counted on 30 hills in the case of diamondback moth and on 10 hills in the case of aphid.

Aphid = assay: Control of aphid on cabbage by soil treatment, number of parasitic insects; format: in vivo; details: 20 mg ai/hill, 21 days after transplanting
Description: as §3
A granular preparation was mixed into bed soil, and the mixture was filled into a cell seedling box and sown with seeds of cabbage (variety: YR Seitoku). Otherwise, cell seedling planted cabbage was treated with the granular agent either by a treatment in the foliage leaf extraction period, or by a pre-transplanting treatment, or by a pricking-in hole treatment, or by a plant foot treatment after the planting. […]

Cutworm = assay: Test for the effect against cutworm on beet, drench, number of injured hills per 100 hills; format: in vivo; details: 50 g ai/10a
Description: Test for the Effect Against Cutworm on Beet
Beet seedlings (variety: Monoace S) planted in a paper pot was treated with 3 L/m^2 of a solution of an agent diluted to a predetermined concentration, by the method of drench. Just after the drench, the plant was set. Predetermined days after the setting, the number of injured hills per 100 hills was counted.

[9] = 96 h, single agent 1 ppm, read-out: Death rate (%) After 4 days
[10] = 168 h, single agent 1 ppm, read-out: Death rate (%) After 7 days
[11] = Myzus persicae, 144 h, read-out: Control degree (%)

CC(C)([CH2][Sn]([CH2]C(C)(C)c1ccccc1)([CH2]C(C)(C)c1ccccc1)[O][Sn]([CH2]C(C)(C)c1ccccc1)([CH2]C(C)(C)c1ccccc1)[CH2]C(C)(C)c1ccccc1)c1ccccc1 [fenbutatin oxide]
Death rate (%) [1]: 50%

milbemectin
Control degree (%) ([2]; 1 ppm): 82%

CC(C)N1C(=O)N(c2ccccc2)CS/C1=N\C(C)(C)C [buprofezin]
Death rate (%) After 1 days ([3]; 0.3 ppm): 0% | Death rate (%) After 5 days ([3]; 0.3 ppm): 45%

O=C(NC(=O)c1c(F)cccc1F)Nc1cc(Cl)c(Oc2ncc(C(F)(F)F)cc2Cl)c(Cl)c1 [chlorfluazuron, reference compound]
pest or weed control at 1 ppm [4, 9]: 10% | pest or weed control at 1 ppm [4, 10]: 30%

CNC(=O)O/N=C(\SC)C(=O)N(C)C [oxamyl]
Number of nematodes per 25 g of soil sample [5]: 13

O=[N+]([O-])NC1=NCCN1Cc1ccc(Cl)nc1 [imidacloprid]
Death rate (%) After 1 days ([3]; 0.1 ppm): 35% | Death rate (%) After 5 days ([3]; 0.1 ppm): 35% | Number of parasitic planthoppers per 30 hills After 40 days ([6]; 1 g ai/Box): 0 | Number of parasitic planthoppers per 30 hills After 60 days ([6]; 1 g ai/Box): 29 | Percentage of injured leaves (%) After 50 days ([7]; 1 g ai/Box): 1.63% | Number of parasitic insects per 30 hills, Diamondback moth ([8]; picking-in hole treatment): 40 | Number of parasitic insects per 30 hills, Diamondback moth ([8]; plant foot treatment): 38 | Number of parasitic insects per 30 hills, Diamondback moth ([8]; pre-transplanting treatment): 35 | Number of parasitic insects per 30 hills, Aphid (Aphid; picking-in hole treatment): 16 | Number of parasitic insects per 30 hills, Aphid (Aphid; plant foot treatment): 13 | Number of parasitic insects per 30 hills, Aphid (Aphid; pre-transplanting treatment): 10 | pest or weed control at 0.1 ppm [2, 11]: 69%

COP(=O)(NC(C)=O)SC (stereo not drawn) [acephate]
Number of injured hills per 100 hills, After 60 days (Cutworm): 2 | Number of injured hills per 100 hills, After 90 days (Cutworm): 14 | Number of injured hills per 100 hills, After 120 days (Cutworm): 24 | pest or weed control at 10 ppm [2, 11]: 48%

O=C(NC(=O)c1c(F)cccc1F)Nc1ccc(Oc2ccc(C(F)(F)F)cc2Cl)cc1F [flufenoxuron]
pest or weed control at 50 ppm ([2]; Myzus persicae, 144 h, 50 ppm, read-out: Control degree (%)): 11%

COc1cccc(C(=O)NN(C(=O)c2cc(C)cc(C)c2)C(C)(C)C)c1C [methoxyfenozide, reference compound]
pest or weed control at 0.1 ppm ([4]; 96 h, single agent 0.1 ppm, read-out: Death rate (%) After 4 days): 0% | pest or weed control at 0.1 ppm ([4]; 168 h, single agent 0.1 ppm, read-out: Death rate (%) After 7 days): 50%

CCOCn1c(-c2ccc(Cl)cc2)c(C#N)c(Br)c1C(F)(F)F [chlorfenapyr, reference compound]
pest or weed control at 1 ppm [4, 9]: 0% | pest or weed control at 1 ppm [4, 10]: 0%

CC(C)(C)c1ccc(CSc2cnn(C(C)(C)C)c(=O)c2Cl)cc1 [pyridaben]
pest or weed control at 10 ppm [2, 11]: 43%

CCOP(=O)(SC(C)CC)N1CCSC1=O (stereo not drawn) [fosthiazate]
Number of nematodes per 25 g of soil sample [5]: 7

Cc1nn(C)c(Oc2ccccc2)c1C=NOCc1ccc(C(=O)OC(C)(C)C)cc1 [fenpyroximate, reference compound]
pest or weed control at 50 ppm ([4]; 96 h, read-out: Death rate (%) After 4 days): 0% | pest or weed control at 50 ppm ([4]; 168 h, read-out: Death rate (%) After 7 days): 0%

CCOP(=S)(OCC)Oc1nc(Cl)c(Cl)cc1Cl [chlorpyriphos, reference compound]
pest or weed control at 1 ppm [4, 9]: 10% | pest or weed control at 1 ppm [4, 10]: 10%

CC(C)(COCc1cccc(Oc2ccccc2)c1)c1ccc(OC(F)(F)Br)cc1 [halfenprox]
Death rate (%) [1]: 35%

CC1=NNC(=O)N(/N=C/c2cccnc2)C1 [pymetrozin]
Death rate (%) After 1 days ([3]; 100 ppm): 10% | Death rate (%) After 5 days ([3]; 100 ppm): 40%

CCOc1ccc([Si](C)(C)CCCc2ccc(F)c(Oc3ccccc3)c2)cc1 [silafluofen]
Death rate (%) After 1 days ([3]; 1 ppm): 30% | Death rate (%) After 5 days ([3]; 1 ppm): 30%

COC(=O)N(C(=O)N1CO[C@@]2(C(=O)OC)Cc3cc(Cl)ccc3C2=N1)c1ccc(OC(F)(F)F)cc1 [indoxacarb, reference compound]
Death rate (%) After 4 days ([4]; single agent 1 ppm): 10% | Death rate (%) After 7 days ([4]; single agent 1 ppm): 40%

Cc1c(COC(=O)[C@@H]2[C@H](/C=C(\Cl)C(F)(F)F)C2(C)C)cccc1-c1ccccc1 (racemic) [bifenthrin]
pest or weed control at 0.1 ppm [2, 11]: 80%

CCOC(=O)CCN(SN(C)C(=O)Oc1cccc2c1OC(C)(C)C2)C(C)C [benfuracarb]
Number of parasitic planthoppers per 30 hills After 40 days ([6]; 2.5 g ai/Box): 78 | Number of parasitic planthoppers per 30 hills After 60 days ([6]; 2.5 g ai/Box): 244 | Percentage of injured leaves (%) After 50 days ([7]; 2.5 g ai/Box): 1.13%

emamectin-benzoate [reference compound]
Death rate (%) After 4 days ([4]; single agent 0.1 ppm): 10% | Death rate (%) After 7 days ([4]; single agent 0.1 ppm): 45%

CCc1nn(C)c(C(=O)NCc2ccc(C(C)(C)C)cc2)c1Cl [tebufenpyrad]
Death rate (%) [1]: 60%
